Measurements reported in patent publication US20090019923A1, “Method for measuring octanol-water distribution coefficients of surfactants” (Clariant International Ltd., priority 2007, published 2009).
Where “and” joins values, the source holds several entries; their conditions need not be identical. Equal values may be shown once.

Assay: octanol-water distribution coefficient by slow stirring, evaporation/re-dissolution and surface tension vs. concentration calibration curve
Conditions: for conc. Caq (concentration in the aqueous layer): after equilibration with octanol, initial 1 g/L; for logP: initial 1 g/L in aqueous layer, residue in 0.2 M KCl, single samples of replicates A, B
Method: Aqueous surfactant solution is equilibrated with octanol. The concentration of surfactant in the aqueous phase after equilibration is determined from the surface tension using a calibration curve. Interference from octanol is prevented by first removing it by evaporation and re-dissolution. The concentration of surfactant in the octanol layer is calculated from the change in concentration in the aqueous layer. Alternatively an aliquot of the octanol layer can be evaporated and re-dissolved in water to determine the concentration directly via surface tension.
Preferably, equal or approximately equal volumes of water and octanol are used. The preferred method is stirring slowly for several hours. The minimum stirring time required will depend on the system and can, if necessary, be determined by running experiments with different stirring times. […] The stirring speed must be kept low enough for there to be two distinct phases during the whole course of the experiment. Other types of agitation (e.g. shaking, rolling, vibration) may also be used, provided they are gentle enough to avoid any mixing of the phases.
Evaporating an aliquot of the aqueous phase and re-dissolving the residue in water or electrolyte solution. This removes octanol, which is surface active and would therefore interefere with the subsequent concentration determination via surface tension. It is covenient to take an aliquot of between 1 and 10 mL and re-dissolve in a larger volume of water (20-500 mL).
The surface tension may be measured by any convenient method, for example, the plate, ring or bubble pressure methods. Preferably a method should be used which allows an equilibration time of several minutes e.g. the plate method.
The calibration curve is obtained by measuring the surface tension of the surfactant at various concentrations. Exactly the same procedure should be used as for the re-dissolved residue solution. If an electrolyte solution is used in the dilution step, it must also be used for the calibration curve.
P=Vaq(c0−caq)/(Voctcaq) (2)
P=Vaq(c0−caq)/(Voctcnon-micellised) (3) • For cmc<caq cnon-micellised=cmc • For cmc≧caq cnon-micellised=caq
Equilibration experiment: 100 mL of a 1 g/L aqueous solution of the surfactant and 100 mL octanol were placed in a conical flask. The two-phase system was stirred for eight hours on a magnetic stirrer. The stirring speed (100 rpm) was low enough for there to be two distinct layers. After the stirrer was switched off, the system was allowed to stand overnight. Then a 2 mL sample of the aqueous phase was placed in a tensiometer glass and evaporated to dryness in a drying cabinet. The residue was redissolved in 50 mL of 0.2 M KCl. The surface tension of this solution was measured with the Pt plate method. The solution was then diluted five times with 0.2 M KCl and the surface tension measured again. The concentration of surfactant was determined by comparison with a calibration curve. A duplicate experiment was run to check the reproducibility.
Equilibration experiment: 100 mL of a 1 g/L aqueous solution of the surfactant and 100 mL octanol were placed in a conical flask. The two-phase system was stirred for eight hours on a magnetic stirrer. The stirring speed (100 rpm) was low enough for there to be two distinct layers. After the stirrer was switched off, the system was allowed to stand overnight. Then a 2 mL sample of the aqueous phase was placed in a tensiometer glass evaporated to dryness in a drying cabinet. The residue was redissolved in 50 mL of 0.2 M KCl. The surface tension of this solution was measured with the Pt plate method. The concentration of surfactant was determined by comparison with a calibration curve.

| Substance | Non-micellised surfactant cnon-micellised (aqueous layer at equilibrium, cmc greater than caq) [g/L] | Equilibrium concentration in aqueous layer, caq (original concentration 1 g/L, 100 mL water/100 mL octanol, stirred 8 h) [g/L] | Concentation in octanol layer, c0-caq (original concentration 1 g/L, from mass balance) [µg/mL] | conc. Caq (concentration in the aqueous layer) (dilution factor 25) | conc. Caq (concentration in the aqueous layer) (dilution factor 125) | logP (100 mL water/100 mL octanol, stirred 8 h, dilution factor 25) | logP (100 mL water/100 mL octanol, stirred 8 h, dilution factor 125) | logP mean (initial concentration in the aqueous layer 1 g/L, mean of all samples and dilutions) |
| --- | --- | --- | --- | --- | --- | --- | --- | --- |
| C10-C13 linear alkylbenzene sulfonate | 0.16 | 0.16 | 840 |  |  |  |  |  |
| C22-amidoamine betaine |  |  |  | 550 µg/mL and 630 µg/mL and 600 µg/mL | 570 µg/mL and 590 µg/mL and 630 µg/mL | −0.09 and −0.22 and −0.18 | −0.12 and −0.15 and −0.22 | −0.17 |
